Data published in patent US12240859B2, “Turbinmicin compounds, compositions and uses thereof” (Wisconsin Alumni Research Foundation, priority 2019, dated 2025).
≈ marks a conversion by molar mass, not a printed value. Like-named read-outs stand apart in the source and are kept apart here. Values belong to the molecule of their own block, whether it stands above or below them. *1 amine or outer side, *2 acyl side, *3 side chain or, on linkers, in order; H or OH if unused. Where a SMILES comes first, the peptide text is derived from it. Bridges are numbered along the chain shown (N, C = ends). [ ]: non-standard residue; d: D form. The star is where a group is joined. hTyr(3S-OH,4S-OH,3'-OSO3H) = N[C@H](C(=O)O)[C@H](O)[C@@H](O)c1ccc(O)c(OS(=O)(=O)O)c1; Orn(4R-OH,5R-OH) = O=C([C@H](C[C@@H](O)[C@@H](O)N[*:3])N[*:1])[*:2]; Pro(3S-OH,4S-Me) = C[C@H]1CN[C@H](C(=O)O)[C@H]1O; X1 = CCCCCOc1ccc(-c2cc(-c3ccc(C(=O)*)cc3)no2)cc1; Gln(3R-OH) = NC(=O)C[C@@H](O)[C@H](N)C(=O)O; Hyp = O=C(O)[C@@H]1C[C@@H](O)CN1

Columns and labels:
C. albicans = assay: In vitro MIC susceptibility testing, broth microdilution; assay type: cell-based, Candida albicans
Description: (§1) In vitro MIC susceptibility testing. […]. Amphotericin B was used as a positive control and the MICs range were 0.25-1.5 μg/mL. Six untreated media controls were included on each plate. The plates were incubated at 33° C. for 72 h. The MICs were determined as the lowest concentration that inhibited visible growth. The MICs were read at 24, 48, and 72 hours, respectively. […]

C. auris = assay: as above; assay type: cell-based, Candida auris; design: unit: ug/mL
Description: as §1

C. tropicalis = assay: as above; assay type: cell-based; conditions: Candida tropicalis, strain 98-234; read-out: MIC
Description: In vitro MIC susceptibility testing. […] The plates were incubated at 33° C. for 72 h. The MICs were determined as the lowest concentration that inhibited visible growth. The MICs were read at 24, 48, and 72 hours, respectively.

Aspergillus fumigatus = assay: In vitro MIC susceptibility testing; assay type: cell-based
Description: as §1

[1] = test system: five Candida isolates, C. albicans K-1, C. tropicalis 98-234, C. auris B 11211, C. glabrata 4720, C. albicans SN 250; assay: In vitro MIC susceptibility testing, positive control over the Candida isolates; assay type: cell-based; conditions: RPMI medium
Description: as §1

A. fumigatus F11628 = conditions: same Cyp51 mutant A. fumigatus strain, comparison; cited from earlier work
C. glabrata = assay: In vitro MIC susceptibility testing, broth microdilution; assay type: cell-based, Candida glabrata; conditions: Nakaseomyces glabratus
Description: as §1

[2] = Candida albicans, strain 98-17, read-out: MIC
[3] = Candida albicans, strain 98-210, read-out: MIC
[4] = Candida albicans, strain 580, read-out: MIC
[5] = Candida albicans, strain K1 (K-1), read-out: MIC
[6] = Candidozyma auris, strain B11104
[7] = Candidozyma auris, strain B11203
[8] = Candidozyma auris, strain B11211, resistant to amphotericin B, fluconazole, micafungin, read-out: MIC
[9] = Candidozyma auris, strain B11219
[10] = Candidozyma auris, strain B11220, read-out: MIC
[11] = Candidozyma auris, strain B11221
[12] = Candidozyma auris, strain B11785, read-out: MIC
[13] = Candidozyma auris, strain B11799, read-out: MIC
[14] = Candidozyma auris, strain B11801, read-out: MIC
[15] = Candidozyma auris, strain B11804, read-out: MIC
[16] = positive controls, A. fumigatus F11628, read-out: MIC

Structure (SMILES): OC(Cn1cncn1)(Cn1cncn1)c1ccc(F)cc1F [Fluconzole, fluconazole]
MIC (C. albicans; [2]): 16 µg/mL (≈ 52.2 µM)
MIC (C. albicans; [3]): 16 µg/mL (≈ 52.2 µM)
MIC (C. albicans; [4]): 4 µg/mL (≈ 13.1 µM)
MIC (C. albicans; [5]): 0.5 µg/mL (≈ 1.63 µM)
MIC (C. auris; [6]): > 256 µg/mL
MIC (C. auris; [7]): 256 µg/mL (≈ 836 µM)
MIC (C. auris; [8]): > 256 µg/mL
MIC (C. auris; [9]): > 256 µg/mL
MIC (C. auris; [10]): 4 µg/mL (≈ 13.1 µM)
MIC (C. auris; [11]): 128 µg/mL (≈ 418 µM)
MIC (C. auris; [12]): 8 µg/mL (≈ 26.1 µM)
MIC (C. auris; [13]): 16 µg/mL (≈ 52.2 µM)
MIC (C. auris; [14]): 16 µg/mL (≈ 52.2 µM)
MIC (C. auris; [15]): 2 µg/mL (≈ 6.53 µM)
MIC (C. tropicalis): 32 µg/mL (≈ 104 µM)

MIC (Aspergillus fumigatus; [16]): 8 µg/mL (≈ 18.3 µM)
Structure (SMILES): C[C@@H](c1nc(-c2ccc(C#N)cc2)cs1)[C@](O)(Cn1cncn1)c1cc(F)ccc1F [Isavuconazole]

MIC (C. albicans; strain 98-17): 0.25 µg/mL (≈ 0.271 µM)
MIC (C. albicans; strain K1 (K-1)): 0.25 µg/mL (≈ 0.271 µM)
MIC (C. auris; strain B11104): 1 µg/mL (≈ 1.08 µM)
MIC (C. auris; strain B11203): 4 µg/mL (≈ 4.33 µM)
MIC (C. auris; strain B11211, resistant to amphotericin B, fluconazole, micafungin): 1.5 µg/mL (≈ 1.62 µM)
MIC (C. auris; strain B11219): 3 µg/mL (≈ 3.25 µM)
MIC (C. auris; strain B11220): 0.38 µg/mL (≈ 0.411 µM)
MIC (C. auris; strain B11221): 0.38 µg/mL (≈ 0.411 µM)
MIC (C. auris; strain B11785): 1.5 µg/mL (≈ 1.62 µM)
MIC (C. auris; strain B11799): 0.5 µg/mL (≈ 0.541 µM)
MIC (C. auris; strain B11801): 6 µg/mL (≈ 6.49 µM)
MIC (C. auris; strain B11804): 0.5 µg/mL (≈ 0.541 µM)
MICs range [1]: 0.25 to 1.5 µg/mL
Structure (SMILES): C[C@@H]1[C@H](O)[C@@H](C)/C=C/C=C/C=C/C=C/C=C/C=C/C=C/[C@H](O[C@@H]2O[C@H](C)[C@@H](O)[C@H](N)[C@@H]2O)C[C@@H]2O[C@](O)(C[C@@H](O)C[C@@H](O)[C@H](O)CC[C@@H](O)C[C@@H](O)CC(=O)O[C@H]1C)C[C@H](O)[C@H]2C(=O)O [Amphotericin B]

Structure (SMILES): CC[C@@H]([C@H](C)O)n1ncn(-c2ccc(N3CCN(c4ccc(OC[C@@H]5CO[C@@](Cn6cncn6)(c6ccc(F)cc6F)C5)cc4)CC3)cc2)c1=O [Posaconazole, posaconazole]
MIC (C. albicans; [2]): 0.12 µg/mL (≈ 0.171 µM)
MIC (C. albicans; [3]): 0.12 µg/mL (≈ 0.171 µM)
MIC (C. albicans; [4]): 0.06 µg/mL (≈ 0.0856 µM)
MIC (C. albicans; [5]): 0.03 µg/mL (≈ 0.0428 µM)
dose required to achieve 1-log kill (A. fumigatus F11628): 150 mg/kg/24 h
MIC (C. auris; Candidozyma auris, strain B11104, read-out: MIC): 0.5 µg/mL (≈ 0.713 µM)
MIC (C. auris; Candidozyma auris, strain B11203, read-out: MIC): 0.12 µg/mL (≈ 0.171 µM)
MIC (C. auris; [8]): 0.5 µg/mL (≈ 0.713 µM)
MIC (C. auris; Candidozyma auris, strain B11219, read-out: MIC): 0.5 µg/mL (≈ 0.713 µM)
MIC (C. auris; [10]): 0.06 µg/mL (≈ 0.0856 µM)
MIC (C. auris; Candidozyma auris, strain B11221, read-out: MIC): 0.5 µg/mL (≈ 0.713 µM)
MIC (C. auris; [12]): 0.016 µg/mL (≈ 0.0228 µM)
MIC (C. auris; [13]): 0.06 µg/mL (≈ 0.0856 µM)
MIC (C. auris; [14]): 0.12 µg/mL (≈ 0.171 µM)
MIC (C. auris; [15]): 0.03 µg/mL (≈ 0.0428 µM)
MIC (Aspergillus fumigatus; [16]): 8 µg/mL (≈ 11.4 µM)
MIC (Aspergillus fumigatus; strain 293, read-out: MIC): 0.5 µg/mL (≈ 0.713 µM)
MIC (Aspergillus fumigatus; strain F14532, Cyp51 M220T): 1 µg/mL (≈ 1.43 µM)
MIC (Aspergillus fumigatus; strain F16216, Cyp51 L98H + TR): 2 µg/mL

Structure (SMILES): CCCCCOc1ccc(-c2cc(-c3ccc(C(=O)N[C@H]4C[C@@H](O)[C@@H](O)NC(=O)[C@@H]5[C@@H](O)[C@@H](C)CN5C(=O)[C@H]([C@H](O)CC(N)=O)NC(=O)[C@H]([C@H](O)[C@@H](O)c5ccc(O)c(OS(=O)(=O)O)c5)NC(=O)[C@@H]5C[C@@H](O)CN5C(=O)[C@H]([C@@H](C)O)NC4=O)cc3)no2)cc1 [Micafungin, micafungin] (X1-[Orn(4R-OH,5R-OH)]T[Hyp][hTyr(3S-OH,4S-OH,3'-OSO3H)][Gln(3R-OH)][Pro(3S-OH,4S-Me)]; lactam 1-C)
MIC (C. glabrata; strain 513): 0.016 µg/mL (≈ 0.0126 µM)
MIC (C. glabrata; strain 729, Fks2_HS1_S663P): 8 µg/mL (≈ 6.3 µM)
MIC (C. glabrata; strain 4720, Fks2_HS1_S645P, echinocandin resistant): 4 µg/mL (≈ 3.15 µM)
MIC (C. glabrata; strain 5592): 0.016 µg/mL (≈ 0.0126 µM)
MIC (C. glabrata; strain 14378, Fks1_HS1_S629P): 2 µg/mL (≈ 1.57 µM)
MIC (C. albicans; Candida albicans, strain 98-17): 0.06 µg/mL (≈ 0.0472 µM)
MIC (C. albicans; Candida albicans, strain 98-210): 0.03 µg/mL (≈ 0.0236 µM)
MIC (C. albicans; Candida albicans, strain 580): 0.016 µg/mL (≈ 0.0126 µM)
MIC (C. albicans; Candida albicans, strain K1 (K-1)): 0.03 µg/mL (≈ 0.0236 µM)
MIC (C. auris; [6]): 0.25 µg/mL (≈ 0.197 µM)
MIC (C. auris; [7]): 0.25 µg/mL (≈ 0.197 µM)
MIC (C. auris; Candidozyma auris, strain B11211, resistant to amphotericin B, fluconazole, micafungin): 4 µg/mL (≈ 3.15 µM)
MIC (C. auris; [9]): 4 µg/mL (≈ 3.15 µM)
MIC (C. auris; Candidozyma auris, strain B11220): 0.12 µg/mL (≈ 0.0945 µM)
MIC (C. auris; [11]): 1 µg/mL (≈ 0.787 µM)
MIC (C. auris; Candidozyma auris, strain B11785): 0.5 µg/mL (≈ 0.394 µM)
MIC (C. auris; Candidozyma auris, strain B11799): 2 µg/mL (≈ 1.57 µM)
MIC (C. auris; Candidozyma auris, strain B11801): 1 µg/mL (≈ 0.787 µM)
MIC (C. auris; Candidozyma auris, strain B11804): 0.5 µg/mL (≈ 0.394 µM)
